The values that follow come from patent US10654884B2 (Vitae Pharmaceuticals, Inc., priority 2014, dated 2020).

In general, IC50 refers to the concentration that inhibits the measured activity by half.

Some results are limits rather than exact numbers.

The target of assay [1] is T1, CD73 on U138 neuroglioma cells (Homo sapiens, UniProt P21589).
T1 construct: U138 neuroglioma cells, which express CD73 on their surface; endogenous in cells; host or cells: U138 neuroglioma cells (ATCC)
T1 sequence (P21589 27-549): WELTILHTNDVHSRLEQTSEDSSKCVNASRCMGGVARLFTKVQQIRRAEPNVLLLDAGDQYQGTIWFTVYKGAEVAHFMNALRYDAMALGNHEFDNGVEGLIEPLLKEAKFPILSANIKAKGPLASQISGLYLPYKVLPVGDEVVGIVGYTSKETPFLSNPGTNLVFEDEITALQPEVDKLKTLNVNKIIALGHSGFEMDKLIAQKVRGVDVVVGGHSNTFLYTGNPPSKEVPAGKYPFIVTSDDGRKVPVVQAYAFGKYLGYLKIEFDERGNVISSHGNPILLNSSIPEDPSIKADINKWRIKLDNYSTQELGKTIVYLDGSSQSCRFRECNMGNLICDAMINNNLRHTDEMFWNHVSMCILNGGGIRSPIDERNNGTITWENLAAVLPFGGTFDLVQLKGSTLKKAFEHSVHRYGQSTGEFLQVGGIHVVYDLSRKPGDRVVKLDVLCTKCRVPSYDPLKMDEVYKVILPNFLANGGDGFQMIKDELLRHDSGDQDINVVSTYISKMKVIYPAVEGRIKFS
The assay can be described thus: Inhibition of Ecto-5′-Nucleotidase Activity in U138 Neuroglioma Cells (Assay 2). It is filed as cell-based. The following applies: 50 μM CMP, 2 hr at 37° C., malachite green readout, read-out: Assay 2: IC50, inhibition of ecto-5′-nucleotidase activity in U138 neuroglioma cells. In a few lines: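 Whole-cell CD73 activity in U138 human neuroglioma cells seeded the day before, washed free of phosphate, then given test compound dilutions with 50 μM CMP in HEPES-buffered saline, pH 7.4, DMSO ≤0.1%. Incubated 2 hr at 37° C; released inorganic phosphate in supernatant measured by malachite green; IC50 by nonlinear regression.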

The target of assay [2] is T2, human CD73 (Homo sapiens, UniProt P21589).
T2 construct: purchased R&D Systems 5795-EN-010
T2 sequence (P21589 27-549): T1 sequence (P21589 27-549)
The assay can be described thus: Inhibition of 5′-Nucleotidase Activity of CD73 (Assay 1). It counts as biochemical. The following applies: human CD73 4 ng/ml, 50 μM CMP, 20 min at RT, malachite green readout; read-out: Assay 1: IC50, inhibition of 5′-nucleotidase activity of CD73. The method in brief:
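Human CD73 (4 ng/ml final) was incubated with 50 μM CMP in 25 mM Tris-HCl pH 7.4, 0.005% Brij-35 for 20 min at RT. Reactions were stopped with malachite green reagent and absorbance was read at 620 nm. IC50 came from a 4-parameter logistic fit.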

`Nc1nc(Cl)nc2c1ncn2[C@@H]1O[C@H](COC(C(=O)O)C(=O)O)[C@@H](O)[C@H]1O` [Example 3, 2-(((2R,3S,4R,5R)-5-(6-amino-2-chloro-9H-purin-9-yl)-3,4-dihydroxytetrahydrofuran-2-yl)methoxy)malonic acid]: the IC50 is 100 to 1000 nM in assay [1] and less than 100 nM in assay [2].
Consider `Nc1nc(Cl)nc2c1ncn2[C@@H]1O[C@H](COC(Cc2ccc(F)cc2)(C(=O)O)C(=O)O)[C@@H](O)[C@H]1O` [Example 4, 2-(((2R,3S,4R,5R)-5-(6-amino-2-chloro-9H-purin-9-yl)-3,4-dihydroxytetrahydrofuran-2-yl)methoxy)-2-(4-fluorobenzyl)malonic acid], for which the IC50 in assay [1] and in assay [2] was less than 100 nM throughout.
With `COCC(OC[C@H]1O[C@@H](n2cnc3c(N)nc(Cl)nc32)[C@H](O)[C@@H]1O)(C(=O)O)C(=O)O` [Example 5, 2-(((2R,3S,4R,5R)-5-(6-amino-2-chloro-9H-purin-9-yl)-3,4-dihydroxytetrahydrofuran-2-yl)methoxy)-2-(methoxymethyl)malonic acid], the IC50 in assay [1] and in assay [2] was less than 100 nM in each case.
Regarding `Nc1nc(Cl)nc2c1ncn2[C@@H]1O[C@H](COC(COCc2ccccc2)(C(=O)O)C(=O)O)[C@@H](O)[C@H]1O` [Example 6, 2-(((2R,3S,4R,5R)-5-(6-amino-2-chloro-9H-purin-9-yl)-3,4-dihydroxytetrahydrofuran-2-yl)methoxy)-2-((benzyloxy)methyl)malonic acid], the IC50 in assay [1] and in assay [2] was less than 100 nM each time.
As to `Nc1nc(Cl)nc2c1ncn2[C@@H]1O[C@H](COC(Cc2ccccc2)(C(=O)O)C(=O)O)[C@@H](O)[C@H]1O` [Example 7, 2-(((2R,3S,4R,5R)-5-(6-amino-2-chloro-9H-purin-9-yl)-3,4-dihydroxytetrahydrofuran-2-yl)methoxy)-2-benzylmalonic acid], the IC50 in assay [1] and in assay [2] was less than 100 nM each time.
Regarding `Nc1nc(Cl)nc2c1ncn2[C@@H]1O[C@H](CO[C@H](C(=O)OCc2ccccc2)P(=O)(O)O)[C@@H](O)[C@H]1O` [Example 16a, ((S)-1-(((2R,3S,4R,5R)-5-(6-amino-2-chloro-9H-purin-9-yl)-3,4-dihydroxytetrahydrofuran-2-yl)methoxy)-2-(benzyloxy)-2-oxoethyl)phosphonic Acid], the figures for the IC50 in assay [1] and in assay [2] were more than 1000 nM and 100 to 1000 nM, respectively.
Turning to `CC(=O)NNC(=O)C(OC[C@H]1O[C@@H](n2cnc3c(N)nc(Cl)nc32)[C@H](O)[C@@H]1O)P(=O)(O)O` (stereo partly drawn) [Example 20, (2-(2-acetylhydrazinyl)-1-(((2R,3S,4R,5R)-5-(6-amino-2-chloro-9H-purin-9-yl)-3,4-dihydroxytetrahydrofuran-2-yl)methoxy)-2-oxoethyl)phosphonic Acid], the IC50 was 100 to 1000 nM in assay [1] and less than 100 nM in assay [2].
Consider `CCNc1nc(Cl)nc2c1ncn2[C@@H]1O[C@H](CO[C@@](C)(C(=O)OCC)P(=O)(O)O)[C@@H](O)[C@H]1O` [Example 29, ((R)-2-(((2R,3S,4R,5R)-5-(2-chloro-6-(ethylamino)-9H-purin-9-yl)-3,4-dihydroxytetrahydrofuran-2-yl)methoxy)-1-ethoxy-1-oxopropan-2-yl)phosphonic Acid], for which the IC50 in assay [1] and in assay [2] was less than 100 nM throughout.
On to `CCNc1nc(Cl)nc2c1ncn2[C@@H]1O[C@H](CO[C@](C)(C(=O)OCC)P(=O)(O)O)[C@@H](O)[C@H]1O` [Example 29a, ((S)-2-(((2R,3S,4R,5R)-5-(2-chloro-6-(ethylamino)-9H-purin-9-yl)-3,4-dihydroxytetrahydrofuran-2-yl)methoxy)-1-ethoxy-1-oxopropan-2-yl)phosphonic Acid], for which the IC50 in assay [1] and in assay [2] was 100 to 1000 nM each time.
Consider `COc1nc(OC)c2ncn([C@@H]3O[C@H](COC(C(=O)OC(C)(C)C)P(=O)(O)O)[C@@H](O)[C@H]3O)c2n1` (stereo partly drawn) [Example 33, (2-(tert-butoxy)-1-(((2R,3S,4R,5R)-5-(2,6-dimethoxy-9H-purin-9-yl)-3,4-dihydroxytetrahydrofuran-2-yl)methoxy)-2-oxoethyl)phosphonic Acid], for which the IC50 in assay [1] and in assay [2] was 100 to 1000 nM throughout.
Consider `COc1nc(OC)c2ncn([C@@H]3O[C@H](COC(C(=O)O)P(=O)(O)O)[C@@H](O)[C@H]3O)c2n1` (stereo partly drawn) [Example 33a, 2-(((2R,3S,4R,5R)-5-(2,6-dimethoxy-9H-purin-9-yl)-3,4-dihydroxytetrahydrofuran-2-yl)methoxy)-2-phosphonoacetic acid], for which the IC50 in assay [1] is more than 1000 nM; in assay [2], 100 to 1000 nM.
Regarding `Cc1nc(C)c2ncn([C@@H]3O[C@H](COC(C(=O)O)P(=O)(O)O)[C@@H](O)[C@H]3O)c2n1` (stereo partly drawn) [Example 38, 2-(((2R,3S,4R,5R)-5-(2,6-dimethyl-9H-purin-9-yl)-3,4-dihydroxytetrahydrofuran-2-yl)methoxy)-2-phosphonoacetic acid], the figures for the IC50 in assay [1] and in assay [2] were more than 1000 nM and 100 to 1000 nM, respectively.
With `CCOC(=O)C(OC[C@H]1O[C@@H](n2cnc3c(N)nc(SC)nc32)[C@H](O)[C@@H]1O)P(=O)(O)O` (stereo partly drawn) [Example 43, (1-(((2R,3S,4R,5R)-5-(6-amino-2-(methylthio)-9H-purin-9-yl)-3,4-dihydroxytetrahydrofuran-2-yl)methoxy)-2-ethoxy-2-oxoethyl)phosphonic Acid], the concentration for half-maximal inhibition (IC50) was more than 1000 nM in assay [1] and 100 to 1000 nM in assay [2].
Consider `Nc1nc(Cl)nc2c1ncn2[C@@H]1O[C@H](COC(Cc2ccc(Cl)cc2)(C(=O)O)C(=O)O)[C@@H](O)[C@H]1O` [Example 47, 2-(((2R,3S,4R,5R)-5-(6-amino-2-chloro-9H-purin-9-yl)-3,4-dihydroxytetrahydrofuran-2-yl)methoxy)-2-(4-chlorobenzyl)malonic acid], for which the IC50 in assay [1] and in assay [2] was less than 100 nM in each case.
For `N#Cc1ccc(CC(OC[C@H]2O[C@@H](n3cnc4c(N)nc(Cl)nc43)[C@H](O)[C@@H]2O)(C(=O)O)C(=O)O)cc1` [Example 48, 2-(((2R,3S,4R,5R)-5-(6-amino-2-chloro-9H-purin-9-yl)-3,4-dihydroxytetrahydrofuran-2-yl)methoxy)-2-(4-cyanobenzyl)malonic acid], the IC50 in assay [1] and in assay [2] was less than 100 nM in each case.
Regarding `Nc1nc(F)nc2c1ncn2[C@@H]1O[C@H](CO[C@@H](C(=O)O)P(=O)(O)O)[C@@H](O)[C@H]1O` [Example 53, (R)-2-(((2R,3S,4R,5R)-5-(6-amino-2-fluoro-9H-purin-9-yl)-3,4-dihydroxytetrahydrofuran-2-yl)methoxy)-2-phosphonoacetic Acid], the IC50 was 100 to 1000 nM in assay [1] and less than 100 nM in assay [2].
For the compound `Nc1nc(F)nc2c1ncn2[C@@H]1O[C@H](CO[C@H](C(=O)O)P(=O)(O)O)[C@@H](O)[C@H]1O` [Example 53a, (S)-2-(((2R,3S,4R,5R)-5-(6-amino-2-fluoro-9H-purin-9-yl)-3,4-dihydroxytetrahydrofuran-2-yl)methoxy)-2-phosphonoacetic acid], the IC50 in assay [1] and in assay [2] was more than 1000 nM in each case.
Regarding `CC(C)(C)OC(=O)[C@H](OC[C@H]1O[C@@H](n2cnc3c(N)nc(C#N)nc32)[C@H](O)[C@@H]1O)P(=O)(O)O` [Example 54a, ((R)-1-(((2R,3S,4R,5R)-5-(6-amino-2-cyano-9H-purin-9-yl)-3,4-dihydroxytetrahydrofuran-2-yl)methoxy)-2-(tert-butoxy)-2-oxoethyl)phosphonic Acid], the values for the IC50 in assay [1] and in assay [2] were more than 1000 nM and 100 to 1000 nM, respectively.
As to `O=C(Nc1nc(I)nc2c1ncn2[C@@H]1O[C@H](COC(C(=O)O)P(=O)(O)O)[C@@H](O)[C@H]1O)c1ccccc1` (stereo partly drawn) [Example 58, 2-(((2R,3S,4R,5R)-5-(6-benzamido-2-iodo-9H-purin-9-yl)-3,4-dihydroxytetrahydrofuran-2-yl)methoxy)-2-phosphonoacetic acid], the IC50 is 100 to 1000 nM in assay [1] and less than 100 nM in assay [2].
Regarding `Nc1nc(I)nc2c1ncn2[C@@H]1O[C@H](CO[C@H](C(=O)O)P(=O)(O)O)[C@@H](O)[C@H]1O` [Example 59, (S)-2-(((2R,3S,4R,5R)-5-(6-amino-2-iodo-9H-purin-9-yl)-3,4-dihydroxytetrahydrofuran-2-yl)methoxy)-2-phosphonoacetic Acid], the IC50 in assay [1] is 100 to 1000 nM; in assay [2], less than 100 nM.
As to `Nc1nc(I)nc2c1ncn2[C@@H]1O[C@H](CO[C@@H](C(=O)O)P(=O)(O)O)[C@@H](O)[C@H]1O` [Example 59a, (R)-2-(((2R,3S,4R,5R)-5-(6-amino-2-iodo-9H-purin-9-yl)-3,4-dihydroxytetrahydrofuran-2-yl)methoxy)-2-phosphonoacetic Acid], the values for the IC50 in assay [1] and in assay [2] were 100 to 1000 nM and less than 100 nM, respectively.
